In experiment [1] the target is T1, FLT3-ITD (Homo sapiens, UniProt P36888).
T1 sequence (P36888 1-993): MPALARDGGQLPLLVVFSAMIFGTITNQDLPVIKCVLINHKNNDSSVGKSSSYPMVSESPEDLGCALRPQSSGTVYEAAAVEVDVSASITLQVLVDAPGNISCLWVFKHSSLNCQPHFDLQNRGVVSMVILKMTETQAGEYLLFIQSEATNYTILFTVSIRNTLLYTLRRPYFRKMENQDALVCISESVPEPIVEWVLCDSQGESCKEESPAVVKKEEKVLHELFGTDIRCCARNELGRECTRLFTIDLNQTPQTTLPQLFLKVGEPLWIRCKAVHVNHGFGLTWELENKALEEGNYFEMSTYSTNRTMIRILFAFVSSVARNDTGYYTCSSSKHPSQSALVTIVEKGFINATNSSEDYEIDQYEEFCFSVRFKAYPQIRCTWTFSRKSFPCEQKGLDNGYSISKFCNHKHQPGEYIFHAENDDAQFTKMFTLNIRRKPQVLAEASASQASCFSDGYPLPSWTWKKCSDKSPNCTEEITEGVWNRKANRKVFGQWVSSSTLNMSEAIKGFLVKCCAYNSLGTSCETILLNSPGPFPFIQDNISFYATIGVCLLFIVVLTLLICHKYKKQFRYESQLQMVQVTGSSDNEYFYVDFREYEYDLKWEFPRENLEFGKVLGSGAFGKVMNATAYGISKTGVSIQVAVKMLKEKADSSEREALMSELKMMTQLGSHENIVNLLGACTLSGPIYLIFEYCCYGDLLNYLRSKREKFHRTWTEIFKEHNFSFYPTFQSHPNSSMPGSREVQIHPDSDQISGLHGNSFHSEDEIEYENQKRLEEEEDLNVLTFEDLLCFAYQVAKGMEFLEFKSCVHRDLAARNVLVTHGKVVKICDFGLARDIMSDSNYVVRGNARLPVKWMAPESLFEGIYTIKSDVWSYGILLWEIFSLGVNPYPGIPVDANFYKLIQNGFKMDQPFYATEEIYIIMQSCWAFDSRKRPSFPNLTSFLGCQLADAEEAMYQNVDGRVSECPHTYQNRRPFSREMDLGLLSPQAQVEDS
Nature of the experiment: AlphaScreen kinase assay with recombinant enzyme, FLT3-ITD. The format is biochemical. The following applies: 8pt; read-out: FLT3_ITD 8pt: IC50. In outline: (§1)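 Recombinant kinase phosphorylates biotinylated poly(Glu4-Tyr) peptide (30 nM final); streptavidin donor and anti-phosphotyrosine PY20 acceptor beads (10 μg/mL final) give a 580 nm proximity signal on 680 nm excitation. IC50 determinations used a final concentration of 10 μM for FLT3-D835Y/FLT3-ITD and 100 μM for c-KIT.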
In general terms: Alpha assays give light when donor and acceptor beads are brought close together.

The target of experiment [2] is T2, c-KIT (Homo sapiens, UniProt P10721).
T2 construct: purchased Millipore 14-559K
Put plainly: AlphaScreen kinase assay with recombinant enzyme, c-KIT. The format is biochemical. The following applies: 100ATP, 8pt, GMean. An outline of the steps: as §1

pIC50: −log10 of the molar value.

T2 sequence (P10721 26-976): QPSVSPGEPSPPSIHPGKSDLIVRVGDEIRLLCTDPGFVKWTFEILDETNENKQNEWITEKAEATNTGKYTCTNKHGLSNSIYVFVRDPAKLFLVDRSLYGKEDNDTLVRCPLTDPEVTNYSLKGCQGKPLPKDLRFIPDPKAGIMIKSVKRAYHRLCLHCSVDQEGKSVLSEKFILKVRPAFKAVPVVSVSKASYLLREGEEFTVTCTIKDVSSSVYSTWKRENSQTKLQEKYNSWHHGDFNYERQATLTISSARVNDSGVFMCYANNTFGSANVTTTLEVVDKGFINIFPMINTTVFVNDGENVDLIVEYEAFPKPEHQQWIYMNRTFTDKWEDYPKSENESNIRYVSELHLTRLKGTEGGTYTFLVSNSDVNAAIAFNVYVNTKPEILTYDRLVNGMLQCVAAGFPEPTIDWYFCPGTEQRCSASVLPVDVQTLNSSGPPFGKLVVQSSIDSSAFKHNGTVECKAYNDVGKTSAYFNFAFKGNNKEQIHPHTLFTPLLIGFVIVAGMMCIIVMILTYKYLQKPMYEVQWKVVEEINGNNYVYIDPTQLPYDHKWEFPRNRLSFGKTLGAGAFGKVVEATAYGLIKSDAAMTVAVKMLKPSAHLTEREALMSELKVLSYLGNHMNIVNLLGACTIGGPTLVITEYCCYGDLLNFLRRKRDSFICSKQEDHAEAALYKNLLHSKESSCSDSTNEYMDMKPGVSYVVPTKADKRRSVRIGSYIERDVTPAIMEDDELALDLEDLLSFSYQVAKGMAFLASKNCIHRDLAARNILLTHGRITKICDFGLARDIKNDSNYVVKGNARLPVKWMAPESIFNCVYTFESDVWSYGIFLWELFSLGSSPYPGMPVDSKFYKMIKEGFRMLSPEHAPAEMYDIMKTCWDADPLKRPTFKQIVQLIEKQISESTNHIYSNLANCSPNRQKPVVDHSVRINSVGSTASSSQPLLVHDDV

What is called pIC50 is −log10 of the IC50, conventionally taken in molar units. `NCC1CCN(C(=O)c2cccc(-c3cnc4[nH]c(-c5ccccc5)cc4c3)n2)CC1` [Compound P-0026, [4-(aminomethyl)-1-piperidyl]-[6-(2-phenyl-1H-pyrrolo[2,3-b]pyridin-5-yl)-2-pyridyl]methanone]: the pIC50 in experiment [1] and in experiment [2] was 5.00 to 10.00 in each case.

On to `CC1CCN(C(=O)c2n[nH]c3ccc(-c4cnc5[nH]c(-c6ccccc6)cc5c4)cc23)CC1` [Compound P-0027, (4-methyl-1-piperidyl)-[5-(2-phenyl-1H-pyrrolo[2,3-b]pyridin-5-yl)-1H-indazol-3-yl]methanone], for which the results for the pIC50 in experiment [1] and in experiment [2] were 4.30 to 5.00 and 4.00 to 4.30, respectively.

Take `CNC1CCN(C(=O)c2n[nH]c3ccc(-c4cnc5[nH]c(-c6ccccc6)cc5c4)cc23)C1` (stereo not drawn) [Compound P-0028, [3-(methylamino)pyrrolidin-1-yl]-[5-(2-phenyl-1H-pyrrolo[2,3-b]pyridin-5-yl)-1H-indazol-3-yl]methanone]: the pIC50 in experiment [1] and in experiment [2] was 5.00 to 10.00 throughout.

Consider `CNC1CCN(C(=O)c2cccc(-c3cnc4[nH]c(-c5ccccc5)cc4c3)n2)C1` (stereo not drawn) [Compound P-0040, [3-(methylamino)pyrrolidin-1-yl]-[6-(2-phenyl-1H-pyrrolo[2,3-b]pyridin-5-yl)-2-pyridyl]methanone], for which the pIC50 in experiment [1] and in experiment [2] was 5.00 to 10.00 each time.

Consider `CNC1CCN(C(=O)c2cccc(-c3cnc4[nH]c(-c5cn(C)nc5C)cc4c3)n2)C1` (stereo not drawn) [Compound P-0049, [6-[2-(1,3-dimethylpyrazol-4-yl)-1H-pyrrolo[2,3-b]pyridin-5-yl]-2-pyridyl]-[3-(methylamino)pyrrolidin-1-yl]methanone], for which the negative-log IC50 (pIC50) in experiment [1] and in experiment [2] was 5.00 to 10.00 each time.

As for `c1ccc(-c2cc3cc(-c4cccc(OC5CCNCC5)n4)cnc3[nH]2)cc1` [Compound P-0050, 2-phenyl-5-[6-(4-piperidyloxy)-2-pyridyl]-1H-pyrrolo[2,3-b]pyridine], the negative-log IC50 (pIC50) in experiment [1] and in experiment [2] was 5.00 to 10.00 in each case.

With `CNC1CN(C(=O)c2cccc(-c3cnc4[nH]c(-c5ccccc5)cc4c3)n2)C1` [Compound P-0052, [3-(methylamino)azetidin-1-yl]-[6-(2-phenyl-1H-pyrrolo[2,3-b]pyridin-5-yl)-2-pyridyl]methanone], the pIC50 in experiment [1] and in experiment [2] was 5.00 to 10.00 each time.

`N[C@H]1CCN(C(=O)c2ncc(-c3cnc4[nH]c(-c5ccccc5)cc4c3)s2)C1` [Compound P-0054, [(3S)-3-aminopyrrolidin-1-yl]-[5-(2-phenyl-1H-pyrrolo[2,3-b]pyridin-5-yl)thiazol-2-yl]methanone]: the pIC50 in experiment [1] and in experiment [2] was 5.00 to 10.00 throughout.

With `CNC1CCN(C(=O)c2cccc(-c3cnc4[nH]c(-c5ccc(F)cc5)cc4c3)n2)C1` (stereo not drawn) [Compound P-0055, [6-[2-(4-fluorophenyl)-1H-pyrrolo[2,3-b]pyridin-5-yl]-2-pyridyl]-[3-(methylamino)pyrrolidin-1-yl]methanone], the pIC50 in experiment [1] and in experiment [2] was 5.00 to 10.00 in each case.

For `CN[C@@H]1CCN(C(=O)c2cccc(-c3cnc4[nH]c(-c5ccccc5)cc4c3)n2)C1` [Compound P-0058, [(3R)-3-(methylamino)pyrrolidin-1-yl]-[6-(2-phenyl-1H-pyrrolo[2,3-b]pyridin-5-yl)-2-pyridyl]methanone], the pIC50 in experiment [1] and in experiment [2] was 5.00 to 10.00 in each case.

On to `CNC1CCN(C(=O)c2cccc(-c3cnc4[nH]c(-c5ccnc(OC)c5)cc4c3)n2)C1` (stereo not drawn) [Compound P-0060, [6-[2-(2-methoxy-4-pyridyl)-1H-pyrrolo[2,3-b]pyridin-5-yl]-2-pyridyl]-[3-(methylamino)pyrrolidin-1-yl]methanone], for which the pIC50 in experiment [1] and in experiment [2] was 5.00 to 10.00 in each case.

Take `CNC1CCN(C(=O)c2cccc(-c3cnc4[nH]c(-c5cnn(CC(F)(F)F)c5)cc4c3)n2)C1` (stereo not drawn) [Compound P-0061, [3-(methylamino)pyrrolidin-1-yl]-[6-[2-[1-(2,2,2-trifluoroethyl)pyrazol-4-yl]-1H-pyrrolo[2,3-b]pyridin-5-yl]-2-pyridyl]methanone]: the pIC50 is 5.00 to 10.00 in experiment [1] and 4.30 to 5.00 in experiment [2].

These data come from patent US9938273B2 (Plexxikon Inc., priority 2015, dated 2018).
